# Patent US20140378474A1, “5-membered heteroarylcarboxamide derivatives as plasma kallikrein inhibitors” (NOVARTIS AG, priority 2012, published 2014)
# pIC50: −log10 of the molar value. Structures can show the parent of a compound that is named as a salt.
# Target: T1, Human plasma kallikrein (Homo sapiens, UniProt P03952)
# T1 construct: purchased Kordia (Leiden, Netherlands) batch HPKA 1303
# Assay: In vitro inhibition of plasma kallikrein (fluorogenic substrate DPro-Phe-Arg-(Rh110)-γGlu-OH)
# Assay type: biochemical
# Conditions: human plasma kallikrein nominally 12 pM, substrate 0.5 μM, 1 hour pre-incubation at room temperature, read after 1 hour (t=60 min)
# Protocol: In Vitro Inhibition of Plasma Kallikrein
# The fluorogenic substrate DPro-Phe-Arg-(Rh110)-γGlu-OH (where DPro is the amino acid d-proline, Rh110 is the fluorophore rhodamine 110 and γGlu is a […] linked to Rh110 via the gamma-carbonyl function; from Biosyntan, Berlin, Germany), being based on the chromogenic substrate described in Gallimore et al (Thromb Res 25, 293-298, 1982), was dissolved in DMSO at 5 mM and stored at −80° C. All other chemicals were of analytical grade.
# Human plasma kallikrein was purchased from Kordia (Leiden, Netherlands, batch HPKA 1303) in lyophilized form.
# The protein solution was reconstituted from the lyophilisate by addition of deinonized water. The resulting stock solution comprised the protein at a concentration of 0.17 mg/ml in 4 mM sodium acetate/HCl and 150 mM NaCl at pH 5.3. The stock solution was stored in aliquots at −80° C. Enzymatic reactions were conducted in ‘assay buffer’, comprising 50 mM Hepes/NaOH at pH 7.8, 150 mM NaCl, 1 mM EDTA and 0.05% (w/v) CHAPS.
# Both, enzyme and substrate were diluted in assay buffer.
# All protein and peptide containing solutions were handled in siliconized tubes (Life Systems Design, Merenschwand, Switzerland). The compound solutions as well as the enzyme and the substrate solutions were transferred to 384-well plates (black Cliniplate; cat. no. 95040020 Labsystems Oy, Finland) by means of a CyBi-Well 96-channel pipettor (CyBio AG, Jena, Germany). Plate measurements were conducted by the means of a Safire2 reader (TECAN, Maennedorf, Switzerland). The Safire2 is a monochomator-based instrument and wavelengths of 485 nm and 535 nm were taken for fluorescence excitation and emission acquisition, respectively. The bandwidths were set to 10 nm in both the excitation and the emission path. The fluorescence in each well was excited by three flashes per measurement.
# For the determination of IC50 values, the assays were performed at room temperature in 384-well plates with a total assay volume of 25.25 μl per well.
# The test compound was dissolved in 90% (v/v) DMSO/water. For the assays, […] of the 90% (v/v) DMSO/water solution or compound solution were added per well, followed by the addition of 12.5 μl protease solution (protease in assay buffer). The final assay concentration of the human plasma kallikrein was nominally 12 pM, the 11 compound concentrations in the dilution series were in the range form 1 nM to 100 μM. After 1 hour of pre-incubation at room temperature, the reactions were started by the addition of 12.5 μl substrate solution (in assay buffer, final assay concentration was 0.5 μM). After the addition of the substrate solution, the final DMSO concentration in the assay was 0.9% (v/v). The effect of the compound on the enzymatic activity was obtained from the linear part of the progress curves and determined after 1 hour (t=60 min). The IC50 value was calculated from the plot of percentage of inhibition vs. inhibitor concentration by a logistics fit according to the following equation:
# where y is the %-inhibition at the inhibitor concentration, x. A1 is the lowest inhibition value, i.e. 0%, and A2 the maximum inhibition value, i.e. 100%. The exponent, p, is the Hill coefficient. The curve fitting was conducted with the non-linear regression routine of the analysis software Origin 7.5SR6 (Origin Lab Corporation).
# T1 sequence (P03952 391-638 limits assumed): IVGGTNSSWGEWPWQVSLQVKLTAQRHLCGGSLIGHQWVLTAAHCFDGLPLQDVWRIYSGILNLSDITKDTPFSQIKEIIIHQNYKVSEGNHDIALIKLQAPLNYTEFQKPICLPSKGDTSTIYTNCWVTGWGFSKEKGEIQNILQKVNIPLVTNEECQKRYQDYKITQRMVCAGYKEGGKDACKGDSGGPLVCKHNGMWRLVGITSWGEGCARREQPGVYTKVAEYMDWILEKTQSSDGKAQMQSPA
# T1 sequence (P03952 20-390 partner limits assumed): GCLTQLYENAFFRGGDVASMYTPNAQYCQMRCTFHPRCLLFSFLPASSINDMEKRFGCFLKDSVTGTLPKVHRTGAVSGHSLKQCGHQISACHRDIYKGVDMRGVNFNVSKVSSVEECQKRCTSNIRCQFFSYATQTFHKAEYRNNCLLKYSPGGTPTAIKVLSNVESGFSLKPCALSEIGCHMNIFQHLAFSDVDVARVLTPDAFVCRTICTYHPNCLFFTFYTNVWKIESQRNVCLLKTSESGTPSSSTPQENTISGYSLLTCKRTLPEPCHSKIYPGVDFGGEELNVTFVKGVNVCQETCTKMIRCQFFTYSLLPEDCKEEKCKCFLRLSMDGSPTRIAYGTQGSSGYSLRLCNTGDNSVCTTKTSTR
row,Structure (SMILES),pIC50
1,"Cc1ccc2cc(Cn3cc(C(=O)NCc4c(C)ccnc4C)nn3)ccc2n1 [Example 1, N-((2,4-dimethylpyridin-3-yl)methyl)-1-((2-methylquinolin-6-yl)methyl)-1H-1,2,3-triazole-4-carboxamide]",4.99
2,"COc1ccnc(C)c1CNC(=O)c1cn(Cc2ccc3nc(C)ccc3c2)nn1 [Example 2, N-((4-methoxy-2-methylpyridin-3-yl)methyl)-1-((2-methylquinolin-6-yl)methyl)-1H-1,2,3-triazole-4-carboxamide]",5.44
3,"Cc1ccc2cc(Cn3cc(C(=O)NCc4c(C)cc(O)nc4C)nn3)ccc2n1 [Example 3, N-((6-hydroxy-2,4-dimethylpyridin-3-yl)methyl)-1-((2-methylquinolin-6-yl)methyl)-1H-1,2,3-triazole-4-carboxamide]",6.24
4,"Cc1ccc2cc(Cn3cc(C(=O)NCc4c(C)cnc(O)c4C)nn3)ccc2n1 [Example 4, N-((2-hydroxy-3,5-dimethylpyridin-4-yl)methyl)-1-((2-methylquinolin-6-yl)methyl)-1H-1,2,3-triazole-4-carboxamide]",5.62
5,"Cc1cnc2[nH]cc(CNC(=O)c3cn(Cc4ccc5nc(C)ccc5c4)nn3)c2c1 [Example 5, N-((5-methyl-1H-pyrrolo[2,3-b]pyridin-3-yl)methyl)-1-((2-methylquinolin-6-yl)methyl)-1H-1,2,3-triazole-4-carboxamide]",5.53
6,"Cc1ccc2cc(Cn3cc(C(=O)NCc4c(C)ccnc4C(F)(F)F)nn3)ccc2n1 [Example 6, N-((4-methyl-2-(trifluoromethyl)pyridin-3-yl)methyl)-1-((2-methylquinolin-6-yl)methyl)-1H-1,2,3-triazole-4-carboxamide]",5.55
7,"O=C(NCc1cccc(Cl)c1)c1cnn(Cc2ccc(Cn3cccn3)cc2)c1 [Example 7, 1-(4-((1H-pyrazol-1-yl)methyl)benzyl)-N-(3-chlorobenzyl)-1H-pyrazole-4-carboxamide]",5.88
8,"C[C@@H](NC(=O)c1cnn(Cc2ccc(Cn3cccn3)cc2)c1)c1cccc(Cl)c1 [Example 8, (R)-1-(4-((1H-pyrazol-1-yl)methyl)benzyl)-N-(1-(3-chlorophenyl)ethyl)-1H-pyrazole-4-carboxamide]",5.79
9,"COc1ccc(Cn2cc(C(=O)NCc3n[nH]c4ccc(Cl)cc34)cn2)cc1 [Example 11, N-((5-chloro-1H-indazol-3-yl)methyl)-1-(4-methoxybenzyl)-1H-pyrazole-4-carboxamide]",6.45
10,"Cc1ccc2cc(Cn3cc(C(=O)NCc4ncc(N)nc4C)nn3)ccc2n1 [Example 13, N-((5-amino-3-methylpyrazin-2-yl)methyl)-1-((2-methylquinolin-6-yl)methyl)-1H-1,2,3-triazole-4-carboxamide]",6.11
11,"O=C(NCc1c[nH]c2ccc(Cl)cc12)c1cnn(Cc2ccc(S(=O)(=O)n3cccc3)cc2)c1 [Example 23, 1-(4-((1H-pyrrol-1-yl)sulfonyl)benzyl)-N-((5-chloro-1H-indol-3-yl)methyl)-1H-pyrazole-4-carboxamide]",6.87
12,"COc1ccc(Cn2cc(C(=O)NCc3n[nH]c4ccc(Cl)cc34)cn2)cc1OC [Example 24, N-((5-chloro-1H-indazol-3-yl)methyl)-1-(3,4-dimethoxybenzyl)-1H-pyrazole-4-carboxamide]",6.55
13,"COc1cc(Cn2cc(C(=O)NCc3n[nH]c4ccc(Cl)cc34)cn2)cc(OC)c1 [Example 25, N-((5-chloro-1H-indazol-3-yl)methyl)-1-(3,5-dimethoxybenzyl)-1H-pyrazole-4-carboxamide]",6.51
14,"COc1cccc(Cn2cc(C(=O)NCc3n[nH]c4ccc(Cl)cc34)cn2)c1 [Example 26, N-((5-chloro-1H-indazol-3-yl)methyl)-1-(3-methoxybenzyl)-1H-pyrazole-4-carboxamide]",6.37
15,"O=C(NCc1cccc(Cl)c1F)c1cnn(Cc2ccc(Cn3cccn3)cc2)c1 [Example 27, 1-(4-((1H-pyrazol-1-yl)methyl)benzyl)-N-(3-chloro-2-fluorobenzyl)-1H-pyrazole-4-carboxamide]",6.07

# The next compounds have a higher pIC50 than those just listed; values first:
row,pIC50,Structure (SMILES)
1,9.53,"N=C(N)c1ccc(CNC(=O)c2cnn(Cc3ccc4ccccc4c3)c2)cc1 [Example 9, N-(4-carbamimidoylbenzyl)-1-(naphthalen-2-ylmethyl)-1H-pyrazole-4-carboxamide hydrochloride]"
2,9.06,"N=C(N)c1ccc(CNC(=O)c2cnn(Cc3ccc(Cn4cccn4)cc3)c2)cc1 [Example 10, 1-(4-((1H-pyrazol-1-yl)methyl)benzyl)-N-(4-carbamimidoylbenzyl)-1H-pyrazole-4-carboxamide hydrochloride]"
3,7.61,"Cc1ccc2cc(Cn3cc(C(=O)NCc4c[nH]c5ccc(Cl)cc45)cn3)ccc2n1 [Example 12, N-((5-chloro-1H-indol-3-yl)methyl)-1-((2-methylquinolin-6-yl)methyl)-1H-pyrazole-4-carboxamide]"
4,7.38,"COc1ccc(Cl)c(CNC(=O)c2cn(Cc3ccc4nc(C)ccc4c3)nn2)c1F [Example 14, N-(6-chloro-2-fluoro-3-methoxybenzyl)-1-((2-methylquinolin-6-yl)methyl)-1H-1,2,3-triazole-4-carboxamide]"
5,9.97,"O=C(NCc1n[nH]c2ccc(Cl)cc12)c1cnn(Cc2ccc(Cn3ccccc3=O)cc2)c1 [Example 15, N-((5-chloro-1H-indazol-3-yl)methyl)-1-(4-((2-oxopyridin-1(2H)-yl)methyl)benzyl)-1H-pyrazole-4-carboxamide]"
6,9.48,"O=C(NCc1c[nH]c2ccc(Cl)cc12)c1cnn(Cc2ccc(Cn3ccccc3=O)cc2)c1 [Example 16, N-((5-chloro-1H-indol-3-yl)methyl)-1-(4-((2-oxopyridin-1(2H)-yl)methyl)benzyl)-1H-pyrazole-4-carboxamide]"
7,9.26,"O=C(NCc1n[nH]c2ccc(Cl)cc12)c1cnn(Cc2ccc(Cn3cccn3)cc2)c1 [Example 17, 1-(4-((1H-pyrazol-1-yl)methyl)benzyl)-N-((5-chloro-1H-indazol-3-yl)methyl)-1H-pyrazole-4-carboxamide]"
8,8.36,"O=C(NCc1c[nH]c2ccc(Cl)cc12)c1cnn(Cc2ccc(Cn3cccn3)cc2)c1 [Example 18, 1-(4-((1H-pyrazol-1-yl)methyl)benzyl)-N-((5-chloro-1H-indol-3-yl)methyl)-1H-pyrazole-4-carboxamide]"
9,8.04,"O=C(NCc1n[nH]c2ccc(Cl)cc12)c1cnn(Cc2ccc(CN3CCOC3=O)cc2)c1 [Example 19, N-((5-chloro-1H-indazol-3-yl)methyl)-1-(4-((2-oxooxazolidin-3-yl)methyl)benzyl)-1H-pyrazole-4-carboxamide]"
10,7.96,"Cc1ccc2cc(Cn3cc(C(=O)NCc4n[nH]c5ccc(Cl)cc45)cn3)ccc2n1 [Example 20, N-((5-chloro-1H-indazol-3-yl)methyl)-1-((2-methylquinolin-6-yl)methyl)-1H-pyrazole-4-carboxamide]"
11,7.33,"O=C(NCc1n[nH]c2ccc(Cl)cc12)c1cnn(Cc2ccc(S(=O)(=O)n3cccc3)cc2)c1 [Example 21, 1-(4-((1H-pyrrol-1-yl)sulfonyl)benzyl)-N-((5-chloro-1H-indazol-3-yl)methyl)-1H-pyrazole-4-carboxamide]"
12,7.22,"O=C(NCc1c[nH]c2ccc(Cl)cc12)c1cnn(Cc2ccc(CN3CCOC3=O)cc2)c1 [Example 22, N-((5-chloro-1H-indol-3-yl)methyl)-1-(4-((2-oxooxazolidin-3-yl)methyl)benzyl)-1H-pyrazole-4-carboxamide]"
